The target of test [1] is T1, MAGL (Mus musculus, UniProt O35678).
T1 sequence (O35678 1-303): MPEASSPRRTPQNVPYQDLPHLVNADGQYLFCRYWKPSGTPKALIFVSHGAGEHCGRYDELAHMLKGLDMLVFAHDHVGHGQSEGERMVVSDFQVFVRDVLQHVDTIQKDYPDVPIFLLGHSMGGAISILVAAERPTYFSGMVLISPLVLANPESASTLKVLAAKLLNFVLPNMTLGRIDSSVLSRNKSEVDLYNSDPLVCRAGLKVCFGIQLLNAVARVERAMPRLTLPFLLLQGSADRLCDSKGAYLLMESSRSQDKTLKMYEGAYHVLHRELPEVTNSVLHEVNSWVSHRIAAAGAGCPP
The test can be described thus: In vitro competitive activity-based protein profiling, MAGL, mouse. Particulars: read-out: MAGL % inh. 1 μM (mouse).

The target in test [2] is T2, FAAH (Mus musculus, UniProt O08914).
T2 sequence (O08914 1-579): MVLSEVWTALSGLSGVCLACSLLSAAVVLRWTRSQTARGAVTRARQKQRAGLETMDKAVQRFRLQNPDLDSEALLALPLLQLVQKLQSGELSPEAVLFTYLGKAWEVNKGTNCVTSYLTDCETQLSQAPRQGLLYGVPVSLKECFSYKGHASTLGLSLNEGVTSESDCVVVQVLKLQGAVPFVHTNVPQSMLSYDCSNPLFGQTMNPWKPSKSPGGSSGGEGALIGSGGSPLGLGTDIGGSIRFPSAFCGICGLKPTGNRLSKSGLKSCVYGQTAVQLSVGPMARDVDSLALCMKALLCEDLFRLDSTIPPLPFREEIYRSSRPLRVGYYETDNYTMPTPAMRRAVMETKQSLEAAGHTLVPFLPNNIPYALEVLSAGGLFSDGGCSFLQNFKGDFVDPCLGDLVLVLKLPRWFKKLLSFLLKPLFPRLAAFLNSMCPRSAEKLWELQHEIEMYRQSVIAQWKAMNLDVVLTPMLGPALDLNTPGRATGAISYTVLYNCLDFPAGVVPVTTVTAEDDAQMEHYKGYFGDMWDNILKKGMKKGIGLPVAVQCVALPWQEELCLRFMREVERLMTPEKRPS
The experiment in a line: In vitro competitive activity-based protein profiling, FAAH, mouse. To be noted: read-out: FAAH % inh. 1 μM (mouse).

Test [3] deals with T3, FAAH (Homo sapiens, UniProt O00519).
T3 sequence (O00519 1-579): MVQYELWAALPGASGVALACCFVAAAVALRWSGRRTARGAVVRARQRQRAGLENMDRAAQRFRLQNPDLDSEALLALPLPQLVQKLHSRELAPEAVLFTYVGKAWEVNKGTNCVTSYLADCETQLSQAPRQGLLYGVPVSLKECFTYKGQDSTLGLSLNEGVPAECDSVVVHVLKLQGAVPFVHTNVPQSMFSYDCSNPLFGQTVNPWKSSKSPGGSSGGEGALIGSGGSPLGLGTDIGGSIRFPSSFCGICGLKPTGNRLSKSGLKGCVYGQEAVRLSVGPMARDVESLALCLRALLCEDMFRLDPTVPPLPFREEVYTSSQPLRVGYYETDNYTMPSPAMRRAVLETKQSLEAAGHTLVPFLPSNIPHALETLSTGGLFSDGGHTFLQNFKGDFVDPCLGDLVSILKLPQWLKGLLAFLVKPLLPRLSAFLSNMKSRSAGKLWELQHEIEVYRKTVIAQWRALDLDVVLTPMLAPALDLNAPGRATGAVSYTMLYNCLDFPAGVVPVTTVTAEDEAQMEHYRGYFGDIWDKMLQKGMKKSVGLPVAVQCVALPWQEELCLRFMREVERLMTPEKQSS
The test can be described thus: In vitro competitive activity-based protein profiling, FAAH, human. Particulars: for inhibition at 1 µM: read-out: FAAH % inh. 1 μM (human).
Method: (§1) Biological Evaluation In Vitro Competitive Activity-Based Protein Profiling.
(§2) Proteomes (mouse brain membrane fraction for mouse assays; human prefrontal cortex membrane fractions for human assays) (50 mL, 1.0 mg/mL total protein concentration) were preincubated with varying concentrations of inhibitors at 37° C. After 30 min, FP-Rh (1.0 mL, 50 mM in DMSO) was added and the mixture was incubated for another 30 min at 37° C. Reactions were quenched with SDS loading buffer (15 μL—4λ) and run on SDS-PAGE.

In test [4] the target is T4, MAGL (Homo sapiens, UniProt Q99685).
T4 sequence (Q99685 1-303): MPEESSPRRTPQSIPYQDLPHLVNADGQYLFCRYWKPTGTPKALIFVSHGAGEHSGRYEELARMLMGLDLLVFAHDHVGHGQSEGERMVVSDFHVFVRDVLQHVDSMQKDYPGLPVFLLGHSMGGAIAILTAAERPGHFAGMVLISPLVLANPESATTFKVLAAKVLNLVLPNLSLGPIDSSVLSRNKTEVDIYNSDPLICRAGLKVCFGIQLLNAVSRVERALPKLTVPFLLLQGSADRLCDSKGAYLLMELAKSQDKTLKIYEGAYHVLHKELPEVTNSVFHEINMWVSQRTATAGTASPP
The experiment in a line: In vitro competitive activity-based protein profiling, MAGL, human. Particulars: for inhibition at 1 µM: read-out: MAGL % inh. 1 μM (human).
Method: as §1, §2

The text below walks through data of patent US10266497B2 (ABIDE THERAPEUTICS, INC., priority 2017, dated 2019).

Structures are written as SMILES.

For orientation: IC50 means the concentration needed to halve the response being measured. Low values mean greater potency, high ones weaker potency.

As for `O=C(O)c1ccn(C(=O)N2CCC3(CCN(Cc4cc(Cl)cc(C(F)(F)F)c4)C3)CC2)n1` [Example 72, 1-(2-(3-chloro-5-(trifluoromethyl)benzyl)-2,8-diazaspiro[4.5]decane-8-carbonyl)-1H-pyrazole-3-carboxylic acid], the inhibition at 1 µM at MAGL [1] is above 75%; on FAAH [2], 0 to 25%; on FAAH [3], 0 to 25%; at MAGL [4], above 75%. The compound also registered an IC50 on FAAH [3] of 1000 to 10000 nM.

With `O=C(O)c1ccn(C(=O)N2CCN(Cc3ccc(Cl)cc3-c3nnco3)CC2)n1` [Example 67, 1-(4-(4-chloro-2-(1,3,4-oxadiazol-2-yl)benzyl)piperazine-1-carbonyl)-1H-pyrazole-3-carboxylic acid], the inhibition at 1 µM was above 75% at MAGL [1], 0 to 25% on FAAH [2], 0 to 25% on FAAH [3] and above 75% at MAGL [4].

In the case of `O=C(O)c1nn(C(=O)N2CCC3(CCN(Cc4ccc(N5CCCC5)cc4C(F)(F)F)C3)CC2)cc1Cl` [Example 138, 4-chloro-1-(2-(4-(pyrrolidin-1-yl)-2-(trifluoromethyl)benzyl)-2,8-diazaspiro[4.5]decane-8-carbonyl)-1H-pyrazole-3-carboxylic acid], the inhibition at 1 µM is above 75% at MAGL [1], 50 to 75% on FAAH [2], 0 to 25% at FAAH [3] and above 75% on MAGL [4]. For the same compound, at FAAH [3], the half-inhibitory concentration (IC50) was 100 to 1000 nM.

On to `O=C(O)c1ccn(C(=O)N2C[C@H]3C[C@@H](OCc4ccccc4Cl)C[C@H]3C2)n1` [Example 41, 1-(cis-5-((2-chlorobenzyl)oxy)octahydrocyclo-penta[c]pyrrole-2-carbonyl)-1H-pyrazole-3-carboxylic acid], for which the inhibition at 1 µM is 0 to 25% at MAGL [1], 0 to 25% at FAAH [2], above 75% on FAAH [3] and above 75% on MAGL [4].

As for `O=C(O)c1ccn(C(=O)N2CCN(Cc3ccc(C(F)(F)F)cc3N3CCN4CCC[C@H]4C3)CC2)n1` [Example 49, (S)-1-(4-(2-(hexahydropyrrolo [1,2-a]pyrazin-2(1H)-yl)-4-(trifluoromethyl)benzyl)piperazine-1-carbonyl)-1H-pyrazole-3-carboxylic acid], the inhibition at 1 µM was above 75% on MAGL [1], 0 to 25% at FAAH [2], 0 to 25% on FAAH [3] and above 75% at MAGL [4].

Consider `O=C(O)c1ccn(C(=O)N2CCN(Cc3cccc(Oc4cccc(Cl)c4)c3)CC2)n1` [Example 84, 1-(4-(3-(3-chlorophenoxy)benzyl)piperazine-1-carbonyl)-1H-pyrazole-3-carboxylic acid], for which the inhibition at 1 µM at MAGL [1] is above 75%; at FAAH [2], 50 to 75%; at FAAH [3] it was 0 to 25%; at MAGL [4], above 75%. At FAAH [3], this compound yielded an IC50 of 100 to 1000 nM.

On to `O=C(O)c1ccn(C(=O)N2CCC3(CCN(Cc4ccc(C(F)(F)F)c(Cl)c4)C3)CC2)n1` [Example 78, 1-(2-(3-chloro-4-(trifluoromethyl)benzyl)-2,8-diazaspiro[4.5]decane-8-carbonyl)-1H-pyrazole-3-carboxylic acid], for which the inhibition at 1 µM at MAGL [1] is above 75%; at FAAH [2], 0 to 25%; at FAAH [3], 0 to 25%; at MAGL [4], above 75%.

Regarding `O=C(O)c1nn(C(=O)N2CC3CN(Cc4cccc(Oc5ccc(Cl)cc5)c4)CC3C2)cc1Cl` (stereo not shown) [Example 137, 4-chloro-1-(5-(3-(4-chlorophenoxy)benzyl)octahydro-pyrrolo[3,4-c]pyrrole-2-carbonyl)-1H-pyrazole-3-carboxylic acid], the inhibition at 1 µM on MAGL [1], on FAAH [2], at FAAH [3] and at MAGL [4] was above 75% throughout. Also, the concentration for half-maximal inhibition (IC50) at FAAH [3] and on MAGL [4] was 100 to 1000 nM throughout.
